Holding throughout (test): Bliss excess, mean over the matrix (fraction); higher = more synergy
Assay [1] relates to CAL-39 (Other Solid Carcinomas). A digest of the protocol: (§1)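 Cell lines grown in DMEM/F12 or RPMI with 10% FBS were plated in 1536-well plates and held 24 hours at 37°C, 5% CO2 before 72 hours of exposure to two-drug dose matrices, with DMSO typically at 0.2%. CellTiter-Glo 2.0 luminescence gave viability, which was converted to inhibition. Vehicle wells were set to 0 and blank wells to 1. Combination Emax is the second-highest inhibition in the matrix, and Bliss excess is the observed combination effect minus the expected EA + EB − EA·EB, where EA and EB are the single-agent effects.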

The test system of another assay is CS1 (Chondrosarcoma). The gist of the method: as §1
Assay [2] relates to D-283MED (Other Solid Carcinomas). The gist of the method:
as §1

Assay [3] concerns DOK (Oral Cavity Carcinoma). The gist of the method: as §1
In assay [4] the test system is ETK-1 (Biliary Tract Carcinoma). A digest of the protocol: as §1
The subject of assay [5] is GDM-1 (Acute Myeloid Leukemia). The gist of the method:
as §1

The subject of assay [6] is HCC-827 (Lung Adenocarcinoma). The gist of the method:
as §1

Assay [7] deals with HCC1143 (Breast Carcinoma). The gist of the method: as §1
The test system of a further assay is HCC38 (Breast Carcinoma). The gist of the method: as §1
Assay [8] concerns HLE (Hepatocellular Carcinoma). The gist of the method:
as §1

In assay [9] the test system is HOP-92 (Non-Small Cell Lung Carcinoma). A digest of the protocol: as §1
The subject of the next assay is MCF7 (Breast Carcinoma). A digest of the protocol: as §1
The test system of assay [10] is MEG-01 (Chronic Myelogenous Leukemia). A digest of the protocol:
as §1

Assay [11] concerns NCI-H1688 (Small Cell Lung Carcinoma). The gist of the method:
as §1

Assay [12] relates to P31-FUJ (Acute Myeloid Leukemia). The gist of the method: as §1
Assay [13] deals with RCC10RGB (Kidney Carcinoma). The gist of the method: as §1
The subject of a further assay is SK-MEL-1 (Melanoma). The gist of the method: as §1
Assay [14] concerns SK-UT-1 (Other Solid Carcinomas). The gist of the method:
as §1

Assay [15] relates to SNG-M (Endometrial Carcinoma). The gist of the method:
as §1

The next assay has as its system Saos-2 (Osteosarcoma). A digest of the protocol:
as §1

Drawing on the supplement of paper PMC11061612, this text covers Bliss excess for 7 compounds.

Turning to `COc1cc2ncnc(Nc3ccc(F)c(Cl)c3)c2cc1OCCCN1CCOCC1` [Gefitinib] + CC(C)n1c(=O)n(C)c2cnc3cc(F)c(-c4ccc(OCCCN5CCCCC5)nc4)cc3c21 [AZD1390] (first compound max 10 µM, 7x7, partner max 0.3 µM), the Bliss excess was -0.0004 in assay [1]; -0.0466 in the assay on CS1 (Chondrosarcoma); -0.0426 in assay [2]; -0.0341 in assay [3]; -0.11 in assay [4]; -0.0833 in [5]. The Bliss excess in [6] is -0.0613; in assay [7] it was -0.0572; in the assay with HCC38 (Breast Carcinoma) it was -0.0485; in assay [8], -0.0487; in assay [9] it was -0.0439; with MCF7 (Breast Carcinoma), -0.0395. Moreover, the Bliss excess in assay [10] is -0.058; in assay [11], -0.0626; in [12], -0.0201; in assay [13], -0.0999; in the assay with SK-MEL-1 (Melanoma) it was 0.0081; in [14], -0.0319. For the same compound, the Bliss excess in assay [15] is -0.109; in the assay on Saos-2 (Osteosarcoma) it was -0.0621.

Turning to `COc1nnc2ccc(N3CCC(c4ccc(OCCN5CCN(C)C(=O)[C@H]5C)cc4)CC3)nn12` [AZD5153] + Cc1c2c(nn1C)CSCc1cc(n(C)n1)CSc1cc(c3ccccc3c1)OCCCc1c(C(=O)O)n(C)c3c-2c(Cl)ccc13 [AZD5991] (first compound max 1 µM, 7x7, partner max 1 µM), the Bliss excess in [1] was 0.0313; in the assay with CS1 (Chondrosarcoma), -0.0342; in assay [2], -0.0409; in [3], -0.0051; in assay [4] it was -0.0436; in [5], 0.0307. For the same compound, the Bliss excess is -0.0225 in assay [6]; 0.0412 in assay [7]; -0.0019 in the assay on HCC38 (Breast Carcinoma); 0.0047 in assay [8]; -0.001 in assay [9]; -0.0003 in the assay with MCF7 (Breast Carcinoma). The Bliss excess in assay [10] is -0.0104; in assay [11] it was 0.0155; in [12], -0.0869; in [13], -0.0843; in the assay with SK-MEL-1 (Melanoma) it was -0.0016; in assay [14] it was -0.0031. Besides, the Bliss excess in assay [15] is -0.0033; in the assay on Saos-2 (Osteosarcoma), 0.0143.

Consider `COc1cccc(OCCCN)c1-c1cc(Nc2cnc(C#N)cn2)n[nH]1` [Prexasertib] + C[C@@H]1COCCN1C2=NC(=NC(=C2)C3(CC3)[S@](=N)(=O)C)C4=C5C=CNC5=NC=C4 [AZD6738] (first compound max 1 µM, 7x7, partner max 10 µM), for which the Bliss excess is 0.0251 in [1]; -0.0111 with CS1 (Chondrosarcoma); 0.0042 in assay [2]; 0.0689 in assay [3]; -0.0028 in [4]; -0.0333 in assay [5]. Besides, the Bliss excess was -0.0234 in [6]; -0.026 in [7]; -0.0029 with HCC38 (Breast Carcinoma); 0 in assay [8]; -0.0039 in [9]; 0.017 with MCF7 (Breast Carcinoma). The Bliss excess is -0.0542 in [10]; 0.0117 in [11]; 0.0092 in [12]; 0.0657 in [13]; -0.015 in the assay on SK-MEL-1 (Melanoma); -0.0259 in assay [14]. For the same compound, the Bliss excess in [15] was 0.0329; with Saos-2 (Osteosarcoma), -0.0739.

On to `CN(C)CCCOc1ccc(-c2ccc3ncc4c(c3c2)n(C2CCOCC2)c(=O)n4C)cn1` [AZD0156] + O=C(c1cc(Cc2n[nH]c(=O)c3ccccc23)ccc1F)N1CCN(C(=O)C2CC2)CC1 [Olaparib] (first compound max 3 µM, partner max 3 µM), for which the Bliss excess in assay [1] is 0.0549; in the assay with CS1 (Chondrosarcoma), 0.0148; in [2], 0.115; in assay [3], 0.0549; in assay [4] it was -0.0029; in [5] it was 0.109. The Bliss excess in [6] is -0.0328; in assay [7], -0.0194; in the assay with HCC38 (Breast Carcinoma), 0.0454; in assay [8] it was -0.0129; in assay [9], 0.0111; with MCF7 (Breast Carcinoma), 0.0509. Further, the Bliss excess in assay [10] is 0.0239; in assay [11], -0.0122; in assay [12] it was 0.0759; in assay [13], -0.0356; in the assay on SK-MEL-1 (Melanoma), -0.0491; in assay [14], 0.0429. Besides, the results for the Bliss excess (in [15]; in the assay on Saos-2 (Osteosarcoma)) were -0.0267 and 0.0334, respectively.

On to `CC(=O)c1c(C)c2cnc(Nc3ccc(N4CCNCC4)cn3)nc2n(C2CCCC2)c1=O` [Palbociclib] + Cc1c2c(nn1C)CSCc1cc(n(C)n1)CSc1cc(c3ccccc3c1)OCCCc1c(C(=O)O)n(C)c3c-2c(Cl)ccc13 [AZD5991] (first compound max 10 µM, 7x7, partner max 1 µM), for which the Bliss excess was 0.0054 in [1]; -0.035 in the assay with CS1 (Chondrosarcoma); 0.0099 in [2]; -0.0363 in assay [3]; -0.0808 in assay [4]; 0.0919 in [5]. Moreover, the Bliss excess was -0.0324 in [6]; 0.0011 in [7]; -0.0244 with HCC38 (Breast Carcinoma); -0.0339 in [8]; 0.013 in [9]; -0.103 in the assay on MCF7 (Breast Carcinoma). Also, the Bliss excess in assay [10] is 0.0338; in assay [11], 0.0284; in [12], -0.11; in assay [13] it was -0.0083; in the assay on SK-MEL-1 (Melanoma), -0.0014; in assay [14], 0.0096. Further, the Bliss excess in assay [15] is -0.0233; in the assay on Saos-2 (Osteosarcoma), -0.0197.

Take `CC1(C)CCC(CN2CCN(c3ccc(C(=O)NS(=O)(=O)c4ccc(NCC5CCOCC5)c([N+](=O)[O-])c4)c(Oc4cnc5[nH]ccc5c4)c3)CC2)=C(c2ccc(Cl)cc2)C1` [Venetoclax] + Cc1cc2ncnn2cc1Nc1ncc2c(n1)n(C1CCOCC1)c(=O)n2C [AZD7648] (first compound max 1 µM, 7x7, partner max 10 µM): the Bliss excess in assay [1] is -0.104; in the assay with CS1 (Chondrosarcoma), -0.0949; in [2], -0.051; in assay [3] it was -0.0208; in assay [4], 0.0273; in assay [5], 0.0419. Also, the Bliss excess in assay [6] is 0.0085; in assay [7], 0.0481; in the assay with HCC38 (Breast Carcinoma), -0.007; in [8] it was -0.024; in assay [9], -0.0194; in the assay with MCF7 (Breast Carcinoma), -0.0267. Moreover, the Bliss excess in assay [10] is -0.0249; in assay [11], 0.0457; in assay [12] it was -0.015; in [13] it was -0.0536; with SK-MEL-1 (Melanoma), -0.0242; in assay [14] it was -0.0119. Besides, the Bliss excess in [15] was -0.0516; with Saos-2 (Osteosarcoma), -0.0075.

On to `COc1cccc(OCCCN)c1-c1cc(Nc2cnc(C#N)cn2)n[nH]1` [Prexasertib] + CN(C)CCCOc1ccc(-c2ccc3ncc4c(c3c2)n(C2CCOCC2)c(=O)n4C)cn1 [AZD0156] (first compound max 1 µM, 7x7, partner max 1 µM), for which the Bliss excess is 0.0099 in assay [1]; -0.0324 in the assay on CS1 (Chondrosarcoma); 0.0116 in [2]; -0.0225 in assay [3]; 0.0229 in assay [4]; -0.0491 in assay [5]. Moreover, the Bliss excess was -0.0026 in assay [6]; -0.0453 in assay [7]; -0.0482 in the assay on HCC38 (Breast Carcinoma); -0.0646 in [8]; 0.0056 in assay [9]; 0.149 in the assay with MCF7 (Breast Carcinoma). Besides, the Bliss excess in assay [10] was -0.0411; in assay [11] it was 0.016; in assay [12], 0.009; in [13] it was -0.0296; with SK-MEL-1 (Melanoma) it was -0.0194; in assay [14] it was -0.0039. Besides, the Bliss excess in assay [15] is 0.0305; with Saos-2 (Osteosarcoma), -0.0869.
